# From publication PMC10825133, “Repurposing proteasome inhibitors for improved treatment of triple-negative breast cancer” (Cell Death Discovery, 2024)
# Read-outs that look alike come from different tables or passages of the source.
# How the values were obtained:
# CAL-148 cells = experiment: Resazurin-based cell viability assay, monotherapy drug screen; set-up: species or system human; AUC: unit not given beside the values; conditions: for AUC: area under the dose response curve, 24 h; for GRmax: drug efficacy at highest tested dose (<0 cytotoxic, 0 cytostatic, >0 partial growth inhibition); for IC50: Homo sapiens
# BT-549 cells = experiment: as above; set-up: species or system human; AUC: scale not given here; conditions: for AUC: area under the dose response curve, 24 h; for GRmax: drug efficacy at highest tested dose (<0 cytotoxic, 0 cytostatic, >0 partial growth inhibition); for IC50: Homo sapiens
# Summary of the method: (§1)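 Cells were seeded at the highest density (tested 1000-16000 cells/well) giving linear growth between days 1 and 3, keeping them in exponential phase over the ~52 h experiment. Viability was read after 4 h at 37 °C with 0.2 mg/ml resazurin added at 10% of medium volume; ex 560/em 615 nm.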
# HCC1806 cells = experiment: as above; set-up: species or system human; AUC: scale not given here; conditions: for AUC: area under the dose response curve, 24 h; for GRmax: drug efficacy at highest tested dose (<0 cytotoxic, 0 cytostatic, >0 partial growth inhibition); for IC50: Homo sapiens
# Summary of the method: as §1
# HCC38 cells = experiment: as above; set-up: species or system human; AUC: scale not given here; conditions: for AUC: area under the dose response curve, 24 h; for GRmax: drug efficacy at highest tested dose (<0 cytotoxic, 0 cytostatic, >0 partial growth inhibition); for IC50: Homo sapiens
# Summary of the method: as §1
# HCC70 cells = experiment: as above; set-up: species or system human; AUC: scale not given here; conditions: for AUC: area under the dose response curve, 24 h; for GRmax: drug efficacy at highest tested dose (<0 cytotoxic, 0 cytostatic, >0 partial growth inhibition); for IC50: Homo sapiens
# Summary of the method: as §1
# MCF-10A cells = experiment: as above; set-up: species or system human; AUC: scale not given here; conditions: for IC50: Homo sapiens; for AUC: area under the dose response curve
# Summary of the method: as §1
# MCF-7 cells = experiment: as above; set-up: species or system human; AUC: scale not given here; conditions: for IC50: Homo sapiens; for AUC: area under the dose response curve, 24 h; for GRmax: drug efficacy at highest tested dose (<0 cytotoxic, 0 cytostatic, >0 partial growth inhibition)
# Summary of the method: as §1
# MDA-MB-468 cells = experiment: as above; set-up: species or system human; AUC: scale not given here; conditions: for IC50: Homo sapiens; for AUC: area under the dose response curve, 24 h
# Summary of the method: as §1
# [1] = tested on: eight TNBC cell lines (BT-549, CAL-148, HCC1806, HCC38, HCC70, MDA-MB-436, MDA-MB-453, MDA-MB-468); experiment: Monotherapy drug screen, mean across the TNBC cell lines
# Experimental: Eighteen pharmaceutical compounds were purchased from Selleckchem (Supplementary Table 2). Stock solutions were prepared using dimethyl sulfoxide (DMSO; Merck), physiological saline (sodium chloride 0.9%) or Milli-Q water, and stored at −80 °C. […] Matched concentration solvent vehicle controls were used for each drug concentration. The drug screens were performed in triplicate and repeated three (monotherapy) or two (combination therapy) times (Fig. 7).
# The optimal seeding density per 96-well was determined for each cell line as previously described. The cells were seeded at a density of 4.0 × 10^3 to 7.5 × 10^3 (cell type dependent) in 96-well clear, flat-bottom microplates (Corning Life Sciences, Sigma-Aldrich) in 100 µl complete culture medium (Supplementary Table 1) and cultured for 24 h. Cell viability was determined using the resazurin assay in untreated cells at the time of plating (t = 0) and treated cells after 24 h drug treatment (Fig. 7). Percentage cell viability was calculated as 100% × (absorbance of treated cells – absorbance of background controls) / (absorbance of matched solvent vehicle controls – absorbance of background controls). The area under the curve (AUC), half-maximal inhibitory concentration (IC50), drug potency (GR50), and drug efficacy (GRmax) were determined for each compound using the GRmetrics (version 1.20.0) package in R. The monotherapy data were evaluated with the IDACombo (version 1.0.2) package in R to predict potential drug combinations (Table 1). SynergyFinder (version 3.2.10) package in R was used to identify synergistic drug combinations.
# Eighteen pharmaceutical compounds were purchased from Selleckchem. […] The solubility of the compound was enhanced by pre-heating the solvent (lukewarm), if necessary. […] The stock solutions were stored at -80°C. […] Matched concentration solvent vehicle controls were used for each drug concentration. The drug screens were performed in triplicate and repeated three times for the monotherapies and twice for the combination treatments. The drug(s) and corresponding controls were plated in 96-well PCR plates (VWR) and stored at -20°C (Fig. 6). The drug plates were thawed, centrifuged (3000 rpm for 30s), and acclimatized to RT before the drugs were added to the cells. New drug plates were prepared for each drug screen.
# The cells were seeded at a density of 4.0x10^3 to 7.5x10^3 (cell type-dependent) in 96-well clear, flat-bottom microplates (Corning Life Sciences, Sigma-Aldrich) in 100 µl culture medium supplemented with 10% FBS and cultured for 24h. Cell viability was determined using the resazurin assay after 24h drug treatment (Fig. 6). Percentage cell viability was calculated as 100% × (absorbance of treated cells – absorbance of background controls) / (absorbance of matched solvent vehicle controls – absorbance of background controls). Normalized growth rate inhibition (GR) was assessed using the absorbance of untreated cells after the time of plating (t = 0). […] For combination treatment, the monotherapy data were evaluated with the IDACombo (version 1.0.2)[20] package in R to predict potential drug combinations (Table 1). SynergyFinder (version 3.2.10)[21] package in R was used to identify synergistic drug combinations.
compound,measurement,setting,value
CC(C)C[C@H](NC(=O)[C@H](CCc1ccccc1)NC(=O)CN1CCOCC1)C(=O)N[C@@H](Cc1ccccc1)C(=O)N[C@@H](CC(C)C)C(=O)[C@@]1(C)CO1 [Carfilzomib],AUC,CAL-148 cells; CAL-148,0.84
same,GRmax,CAL-148 cells; CAL-148,−0.01
same,IC50,"CAL-148 cells; CAL-148, growth rate inhibition concentration at GR(c) = 0.5, 24 h, read-out: GR50 (the source's name)",0.37 µM
same,AUC,BT-549 cells; BT-549,0.67
same,GRmax,BT-549 cells; BT-549,0.37
same,IC50,"BT-549 cells; BT-549, 24 h drug treatment, read-out: IC50",4.4 µM
same,IC50,"BT-549 cells; BT-549, growth rate inhibition concentration at GR(c) = 0.5, 24 h, read-out: GR50 (the source's name)",1 µM
same,AUC,HCC1806 cells; HCC1806,0.73
same,GRmax,HCC1806 cells; HCC1806,0.31
same,IC50,"HCC1806 cells; HCC1806, 24 h drug treatment, read-out: IC50",1.7 µM
same,IC50,"HCC1806 cells; HCC1806, growth rate inhibition concentration at GR(c) = 0.5, 24 h, read-out: GR50 (the source's name)",0.95 µM
same,AUC,HCC38 cells; HCC38,0.71
same,GRmax,HCC38 cells; HCC38,−0.99
same,IC50,"HCC38 cells; HCC38, 24 h drug treatment, read-out: IC50",0.57 µM
same,IC50,"HCC38 cells; HCC38, growth rate inhibition concentration at GR(c) = 0.5, 24 h, read-out: GR50 (the source's name)",0.38 µM
same,AUC,HCC70 cells; HCC70,0.76
same,GRmax,HCC70 cells; HCC70,−0.57
same,IC50,"HCC70 cells; HCC70, 24 h drug treatment, read-out: IC50",2.1 µM
same,IC50,"HCC70 cells; HCC70, growth rate inhibition concentration at GR(c) = 0.5, 24 h, read-out: GR50 (the source's name)",0.48 µM
same,IC50,"MCF-10A cells; 24 h drug treatment, read-out: IC50",0.54 µM
same,IC50,"MCF-10A cells; growth rate inhibition concentration at GR(c) = 0.5, 24 h, read-out: GR50 (the source's name)",0.11 µM
same,AUC,MCF-10A cells; 24 h,0.66
same,IC50,"MCF-7 cells; MCF7, MCF-7, growth rate inhibition concentration at GR(c) = 0.5, 24 h, read-out: GR50 (the source's name)",0.19 µM
same,AUC,MCF-7 cells; MCF-7,0.81
same,GRmax,MCF-7 cells; MCF-7,−0.45
same,IC50,"MDA-MB-468 cells; MDA-MB-468, 24 h drug treatment, read-out: IC50",0.46 µM
same,IC50,"MDA-MB-468 cells; MDA-MB-468, growth rate inhibition concentration at GR(c) = 0.5, 24 h, read-out: GR50 (the source's name)",0.11 µM
same,AUC,MDA-MB-468 cells; MDA-MB-468,0.65
same,IC50,"[1]; Homo sapiens, 24 h, read-out: GR50 (mean ± SD)",0.44 ± 0.34 µM
same,"area under the dose response curve (AUC), mean ± SD","[1]; TNBC cell lines, 24 h",0.73 ± 0.10
CC1=C(O)C(=O)C=C2C1=CC=C1[C@@]2(C)CC[C@@]2(C)[C@@H]3C[C@](C)(C(=O)O)CC[C@]3(C)CC[C@]12C [Celastrol],AUC,CAL-148 cells; CAL-148,0.85
same,GRmax,CAL-148 cells; CAL-148,−0.84
same,IC50,"CAL-148 cells; CAL-148, 24 h",3.7 µM
same,IC50,"CAL-148 cells; CAL-148, 24 h, read-out: GR50 (µM)",3.1 µM
same,AUC,BT-549 cells; BT-549,0.82
same,GRmax,BT-549 cells; BT-549,−0.51
same,IC50,"BT-549 cells; BT-549, 24 h",1.3 µM
same,IC50,"BT-549 cells; BT-549, 24 h, read-out: GR50 (µM)",1.5 µM
same,AUC,HCC1806 cells; HCC1806,0.81
same,GRmax,HCC1806 cells; HCC1806,−0.82
same,IC50,"HCC1806 cells; HCC1806, 24 h",2.1 µM
same,IC50,"HCC1806 cells; HCC1806, 24 h, read-out: GR50 (µM)",3.4 µM
same,AUC,HCC38 cells; HCC38,0.79
same,GRmax,HCC38 cells; HCC38,−0.96
same,IC50,"HCC38 cells; HCC38, 24 h",1.4 µM
same,IC50,"HCC38 cells; HCC38, 24 h, read-out: GR50 (µM)",1.2 µM
same,AUC,HCC70 cells; HCC70,0.82
same,GRmax,HCC70 cells; HCC70,−0.98
same,IC50,"HCC70 cells; HCC70, 24 h",1.8 µM
same,IC50,"HCC70 cells; HCC70, 24 h, read-out: GR50 (µM)",1.2 µM
same,IC50,MCF-10A cells; 24 h,1.6 µM
same,IC50,"MCF-10A cells; 24 h, read-out: GR50 (µM)",1.8 µM
same,AUC,MCF-10A cells; 24 h,0.81
same,IC50,"MCF-7 cells; MCF7, 24 h",2.8 µM
same,IC50,"MCF-7 cells; MCF7, 24 h, read-out: GR50 (µM)",3.3 µM
same,AUC,MCF-7 cells; MCF-7,0.89
same,GRmax,MCF-7 cells; MCF-7,−0.30
same,IC50,"MDA-MB-468 cells; MDA-MB-468, 24 h",1 µM
same,IC50,"MDA-MB-468 cells; MDA-MB-468, 24 h, read-out: GR50 (µM)",0.75 µM
same,AUC,MDA-MB-468 cells; MDA-MB-468,0.75
same,cytotoxic effect at the highest dose,"[1]; TNBC cell lines, by GRmax",cytotoxic
